{
  "source": "patent US8354381B2",
  "about": "“Peptide compositions for oral care systems” (E I du Pont de Nemours and Company, priority 2009, dated 2013)",
  "key": {"[1]": {"experiment": "Phage ELISA, bovine polished enamel-binding assay", "conditions": "over 10^10 pfu phage, A450", "method": "A total of 11 selected phage candidates (Example 3) was used in a phage ELISA experiment. Purified phage lysates were used for binding to the enamel blocks using an anti-M13 phage antibody conjugated to horseradish-peroxidase, followed by the addition of chromogenic agent TMB. The plates were read at A450 nm.\nFor each phage candidate to be tested, the polished and unpolished enamel blocks were incubated for 1 h at room temperature with 200 μL of blocking buffer, consisting of 2% non-fat dry milk (Schleicher & Schuell, Inc.) in TBS. […] The tube was rinsed 6 times with wash buffer consisting of TBST-0.05%. The wells were filled with 200 μL of TBST-0.5% containing 1 mg/mL BSA and then 10 μL (over 10^10 pfu) of purified phage stock was added. The samples were incubated at room temperature for 60 min with slow shaking. The non-binding phage was removed by washing 6 times with TBST-0.5%. […] The conjugate solution was removed and was washed 6 times with TBST-0.5%. […] BoEn P means bovine polished enamel and BoEn means bovine enamel."}, "[2]": {"experiment": "Peptide-mediated deposition of Co-NTA beads on bovine enamel, SEM", "format": "binding", "conditions": "20 μM peptide; for Particles per um^2 at 5000X: then Co-NTA TALON beads, SEM at 5000X", "excerpt": "Bovine enamel incisors were obtained from SE Dental (Baton Rouge, La.). Teeth were sectioned and cut into enamel slabs approx. 5 mm on each side using a DREMEL® rotary (Robert Bosch LLC, Farmington Hills, Mich.) saw with a diamond blade. The enamel slabs were cleaned and embedded in a well plate contained molding material so as to only expose the enamel surface in the well.\nPolystyrene beads with cobalt-NTA coating (DYNABEADS® TALON®) were obtained from Invitrogen (item#101.02D) as a slurry of 40 mg/mL. The slurry (50 μL; 2 mg beads) was resuspended and washed with 700 μL of binding buffer (50 mM sodium phosphate, pH 8.0, 300 mM NaCI, 0.01% TWEEN® 20) in preparation for His6 binding.\nPeptides were dissolved in phosphate buffered saline (Pierce, pH 7.2) at a concentration of 20 μM. Peptide solution (500 μL) was placed in each well containing an enamel slab. Enamel slabs exposed to only PBS in this step were used as a control. Samples were incubated with peptide solution with gentle agitation for 30 min. The peptide solution and PBS were removed from the well plate and each well was rinsed 3 times with repeated additions of PBS. TALON® beads (50 μL) were added to each well and incubated with gentle agitation for 30 min. The TALON® solution was removed and the samples were washed three times with the same binding buffer.\nEach enamel sample was removed from the well plate and rinsed again with buffer. […] The enamel slabs were further examined by Electron Microscopy (Hitachi TM-1000 Tabletop SEM Microscope) at 1000×, 2500× and 5000× magnification. […] Little to no beads were found on the no peptide control. […]"}, "Pellicle Surface": {"test_system": "Pellicle Surface", "conditions": "read-out: MB50; biotinylated peptide, 30 min in vivo pellicle on enamel, from Scatchard plots", "method": "The pellicle coated enamel substrates were removed from the wax backing and placed in well plates with the pellicle surface exposed as in Example 5. […] The blocking buffer was removed by aspirating the liquid out of each well. […] The samples were incubated for 30 min with slow shaking at 37° C. The non-binding peptide was removed by washing 6 times with PBST. […] The conjugate solution was removed and was washed 4 times with PBST.\nEach enamel substrate was removed from the well and washed again in a 15-mL test tube with 10 mL of PBST. Each enamel substrate was then mounted in a clean well plate with only the enamel surface exposed."}, "[3]": {"test_system": "pellicle coated enamel substrates", "conditions": "20 μM biotinylated peptide, streptavidin-HRP, normalized to DenP03, three replicates", "method": "A total of 20 synthetic peptides were manufactured using sequences obtained from Table 6. Peptides were obtained from SynBioSci Corp. (Livermore, Calif.) and included an additional sequence (SSRP; SEQ ID NO: 118) at the N-terminus and biotin labeled lysine at the C-terminus.\nEnamel substrates were cut into approximately 7 mm squares and mounted on wax mounting for incubation in the mouth for 30 min to form a pellicle coated surface. The pellicle coated enamel substrates were removed from the wax backing and placed in well plates with the pellicle surface exposed as in Example 5. Each pellicle coated substrate was incubated for 1 h at room temperature (˜22° C.) with 1 mL of blocking buffer, consisting of 1 mg/mL BSA in PBST (Pierce BUPH™ #28372 with 0.1% TWEEN® 20). The blocking buffer was removed by aspirating the liquid out of each well. The tube was rinsed 2 times with wash buffer consisting of PBST. The wells were filled with 500 μL of 20 μM peptide solution which was prepared by diluting in blocking buffer. The samples were incubated for 30 min with slow shaking at 37° C. The non-binding peptide was removed by washing 6 times with PBST. Then, 500 μL of horseradish peroxidase/streptavidin conjugate (Pierce #22127), diluted 1:2000 in PBST, was added and incubated for 1 h at room temperature (˜22° C.). The conjugate solution was removed and was washed 4 times with PBST.\nEach enamel substrate was removed from the well and washed again in a 15-mL test tube with 10 mL of PBST. Each enamel substrate was then mounted in a clean well plate with only the enamel surface exposed. A 1:1 solution of TMB substrate and H2O2 (200 μL) was added to each well and the color was allowed to develop for between 10 to 20 min, typically for 15 min, at room temperature (˜22° C.). Then, 100 μL of solution from each well was transferred to a 96 well reading plate containing stop solution (100 μL of 2 M H2SO4) in each well. The A450 was measured using a microplate spectrophotometer (Molecular Devices, Sunnyvale, Calif.). […] Each sequence was tested with three replicate enamel coated pellicle substrates."}, "[4]": {"test_system": "pellicle-coated enamel substrates", "experiment": "Tooth whitening with sequentially applied peptide and silica-coated TiO2, colour measurement", "design": "species or system bovine", "conditions": "20 μM peptide 30 min, then 1% silica-coated TiO2 30 min; three replicate teeth", "method": "Silica-coated rutile titanium dioxide (Luce II WW) was obtained from US Cosmetics Corp. (Dayville, Conn.). A 12 wt % solution of the pigment was prepared with Millipore water. The solution was dispersed by horn sonication using a Branson Sonifier 150 at 10 W. The solution was sonicated in an ice bath for 6 min total, with 2 min sonication intervals. A working solution of 1 wt % in 10 mM sodium phosphate buffer at pH7.2 was made for application to peptide coated enamel. A 0.01% solution of this dispersion diluted in the same buffer was measured on a Malvern Zetasizer Nano dynamic light scattering instrument.\nBovine enamel incisors were obtained from SE Dental (Baton Rouge, La.). Teeth were sectioned and cut into enamel slabs approx. 7 mm on each side using a DREMEL® saw with a diamond blade. The enamel slabs were cleaned and lightly polished to remove surface debris. The enamel was pretreated with a mixture of coffee and tea in order to stain to a color similar to human stained teeth. Each enamel block was then mounted on wax mounting and sterilized with ethylene oxide. […] The mounted enamel blocks were brushed with a toothbrush and a 1:2 dilution of COLGATE® MAXFRESH® toothpaste (Colgate-Palmolive Co., New York, N.Y.) and then reinserted into the mouth for 1 minute. […] Each pellicle coated enamel slab was measured for color using a Konica-Minolta 2600d integrating sphere spectrophotometer.\nPeptides listed in Table 15 were dissolved into pH 7.2 PBS buffer at a concentration of 20 μM. Three replicate teeth were used for each experimental condition. Each tooth was incubated with peptide solution for 30 min or buffer alone as a control. The enamel blocks were removed from the peptide solution and rinsed with PBS buffer. The enamel blocks were then incubated in the 1% solution of silica-coated TiO2 for 30 min. The enamel blocks were removed, rinsed with 10 mM phosphate buffer and blotted dry. Each substrate was measured for color (L, a*, b*, C*, h) values. The total color difference, Delta E*ab and the Metric Hue Difference, Delta H*ab, for the whitening process were calculated using equations (1) and (2) below: Delta E*ab=((L*1−L*2)^2+(a*1−a*2)^2+(b*1−b*2)^2)^1/2 (1) Delta H*ab=(2(C*1C*2−a*1a*2−b*1b*2))^1/2 (2) where L*=the lightness variable, a* and b* are the chromaticity coordinates and C* is the chroma of CIELAB colorspace as defined by the International Commission of Illumination (CIE) and described in ASTM D2244-09b and subscript 1 denotes the initial color value and subscript 2 denotes the final color value."}},
  "note": "Where no end group is shown, it is not given here. The star is where a group is joined. Biotin = O=C1N[C@H]2[C@H](CS[C@H]2CCCCC(=O)*)N1",
  "data": [
    {"molecule": "EPPTRTRVNNHTVTVQAQQH (Synthetic oral-surface binding peptide) [BoEn P2]", "values": [
      {"measurement": "O.D.450", "setting": "[1]", "result": 0.641}
    ]},
    {"molecule": "GYCLRGDEPAVCSG (Synthetic oral-surface binding peptide) [BoEn P3]", "values": [
      {"measurement": "O.D.450", "setting": "[1]", "result": 0.665}
    ]},
    {"molecule": "NFCETQLDLSVCTV (Synthetic oral-surface binding peptide) [BoEn P5]", "values": [
      {"measurement": "O.D.450", "setting": "[1]", "result": 0.797}
    ]},
    {"molecule": "NTCQPTKNATPCSA (Synthetic oral-surface binding peptide) [BoEn P6]", "values": [
      {"measurement": "O.D.450", "setting": "[1]", "result": 0.83}
    ]},
    {"molecule": "PHMASMTGGQQMGSYSETPNDQKPNPHYKVSGTKGPEEAAKKEEAAKKPAYSETPNDQKPNPHYKVSGTKGSGGGGSGSGGGGSLNSMSDKHHGHQNTATRNQHGGGLNSMSDKHHGHQNTATRNQHGGHHHHHH [DE008]", "values": [
      {"measurement": "Particles per um^2 at 5000X", "setting": "[2]", "result": 0.31, "unit": "Particles per um^2"}
    ]},
    {"molecule": "SSRPHKNENIMQYNVNDRWHITPAK(Biotin) [DenP32-A]", "values": [
      {"measurement": "EC50", "setting": "Pellicle Surface", "result": 25, "unit": "µM"},
      {"measurement": "O.D.450 (normalized)", "setting": "[3]", "result": 1.135}
    ]},
    {"molecule": "SSRPTTYHYKNIYQESYQQRNPAVK(Biotin) [DenP3-A]", "values": [
      {"measurement": "EC50", "setting": "Pellicle Surface", "result": 28, "unit": "µM"},
      {"measurement": "O.D.450 (normalized)", "setting": "[3]", "result": 1.000}
    ]},
    {"molecule": "THNMSHFPPSGHPKRTAT (Synthetic oral-surface binding peptide) [BoEn P8]", "values": [
      {"measurement": "O.D.450", "setting": "[1]", "result": 2.02}
    ]},
    {"molecule": "PGSGGGGSPYSETPNDQKPNPHYKVSGTKGGGYSETPNDQKPNPHYKVSGTKGGGYSETPNDQKPNPHYKVSGTKGPGGHHHHHH (Synthetic peptide composition) PGSGGGGSPYSETPNDQKPNPHYKVSGTKGGGYSETPNDQKPNPHYKVSGTKGGGYSETPNDQKPNPHYKVSGTKGPGGHHHHHH", "values": [
      {"measurement": "Particles per um^2 at 5000X", "setting": "[2]", "result": 0.44, "unit": "Particles per um^2"}
    ]},
    {"molecule": "PGSGGGGSPYSETPNDQKPNPHYKVSGTKGPEEAAKKEEAAKKPAYSETPNDQKPNPHYKVSGTKGPGGHHHHHH (Synthetic peptide composition) PGSGGGGSPYSETPNDQKPNPHYKVSGTKGPEEAAKKEEAAKKPAYSETPNDQKPNPHYKVSGTKGPGGHHHHHH", "values": [
      {"measurement": "Bead coverage by electron microscopy (in words)", "setting": "[2]; Co-NTA beads, SEM 1000×, 2500×, 5000×", "result": "bead binding at a lower degree than the other samples"},
      {"measurement": "Particles per um^2 at 5000X", "setting": "[2]", "result": 0.17, "unit": "Particles per um^2"}
    ]},
    {"molecule": "PGSGGGGSPYSETPNDQKPNPHYKVSGTKGPEPEPEPEPIPEPPKEAPVVIEKPKPKPKPKPKPPAYSETPNDQKPNPHYKVSGTKGPGGHHHHHH (Synthetic peptide composition) PGSGGGGSPYSETPNDQKPNPHYKVSGTKGPEPEPEPEPIPEPPKEAPVVIEKPKPKPKPKPKPPAYSETPNDQKPNPHYKVSGTKGPGGHHHHHH", "values": [
      {"measurement": "Particles per um^2 at 5000X", "setting": "[2]", "result": 0.39, "unit": "Particles per um^2"}
    ]},
    {"molecule": "PSSRPTTYHYKNIYQESYQQRNPAVGPEEAAKKEEAAKKPASSRPTTYHYKNIYQESYQQRNPAVGSSGPGSSKQPNKQPNKQPNKQPNKQPNKQPNKQPNKQPNKQPNGPHHHHHH (peptide) PSSRPTTYHYKNIYQESYQQRNPAVGPEEAAKKEEAAKKPASSRPTTYHYKNIYQESYQQRNPAVGSSGPGSSKQPNKQPNKQPNKQPNKQPNKQPNKQPNKQPNKQPNGPHHHHHH", "values": [
      {"measurement": "Delta E*ab Avg", "setting": "[4]", "result": 10.70},
      {"measurement": "Delta H*ab Avg", "setting": "[4]", "result": 2.93}
    ]},
    {"molecule": "PSSSRPTTYHYKNIYQESYQQRNPAVGPEEAAKKEEAAKKPASSRPTTYHYKNIYQESYQQRNPAVGPHHHHHH (peptide) PSSSRPTTYHYKNIYQESYQQRNPAVGPEEAAKKEEAAKKPASSRPTTYHYKNIYQESYQQRNPAVGPHHHHHH", "values": [
      {"measurement": "Delta E*ab Avg", "setting": "[4]", "result": 6.78},
      {"measurement": "Delta H*ab Avg", "setting": "[4]", "result": 1.60}
    ]}
  ]
}
